Results on two molecules are retold here after US20220339596A1, “METHOD FOR PRODUCING RADICALS, METHOD FOR STERILIZING SPORES, AND CANCER TREATMENT DRUG” (priority 2019, published 2022).

One data set concerns Yeast cells. In kind it is cell-based. On the procedure: Yeast was inoculated into a modified YPE liquid medium (2% of polypeptone, 1% of yeast extract, 2% of ethanol, and 0.2% of glucose) and was incubated at 30° C. for 1 day. A bacterial liquid was collected from the liquid medium and washed by being suspended in purified water, and yeast cells collected through centrifugal separation were taken as a specimen. The cells were suspended in a 100 mmol/L potassium phosphate buffer solution (pH: 7.0) at a concentration of about 5×10^8 cells/mL. Also, the suspension of cells was diluted with a 100 mmol/L potassium phosphate buffer solution as appropriate so as to have a target concentration of cells.
The reagent containing chlorine dioxide radicals prepared as described above in (3) was diluted with a 10 mmol/L potassium phosphate buffer solution (pH: 7.0) to prepare a sample containing chlorine dioxide radicals at a concentration of 20 μmol/L. On the other hand, the suspension of cells prepared in (1) was diluted with a 10 mmol/L potassium phosphate buffer solution (pH: 7.0) such that the concentration of cells was about 5×10^8 cells/mL. Next, 0.5 mL of the sample containing chlorine dioxide radicals was mixed with 0.5 mL of the suspension of cell spores, and the liquid mixture was left to stand at room temperature for 30 minutes. Thereafter, the liquid mixture was scattered over brain heart agar and incubated at 30° C. for 1 day, and then the number of colonies was counted.
Then, similarly to Experiment 1 described above, 0.5 mL of a yeast solution having a yeast cell concentration of about 5×10^8 cells/mL was added to 0.5 mL of the reagent, and 1 mL of the resultant solution was placed in a disposable cell UV (product name: Two-face transparent semimicro #1941, Nikko Hansen & CO., LTD.), and was irradiated with light using an LED via a side surface of the cell. […] The radiant energy under the above condition was calculated as 37.8 J/cm^2. The solution after the treatment was scattered over brain heart agar after being diluted as appropriate, and incubated at 30° C. for 1 day, and then the number of colonies was counted.

Data set [1] relates to respiratory chain. As to the kind of experiment: Electron transfer activity of the respiratory chain in Candida cells. To be noted: in proportion to the reduction in survival rate. The data set is classed as cell-based, Candida albicans. The text has this:
(§1) Accordingly, it is supposed that the respiratory chain in mitochondria was one target portion of the yeast cells and the Candida cells treated with chlorine dioxide radicals. It is thought that when the respiratory chain is damaged, ROS (Reactive Oxygen Species) are generated, which leads to apoptosis and the death of cells.

A further data set has as its system Candida albicans. In kind it is cell-based.
In data set [2] the test system is Spores of Bacillus subtilis. In kind it is cell-based.
Method: Bacillus subtilis was scattered over a nutrient agar medium and incubated at 37° C. for 1 week. Colonies were scraped off from the agar medium and washed by being suspended in a physiological saline solution, and Bacillus subtilis collected through centrifugal separation was taken to be cell spores. The cell spores were suspended in a physiological saline solution at a concentration of about 6×10^6 spores/mL. The suspension of cell spores was prepared so as to have the target concentration of cell spores by being diluted with purified water as appropriate.
On the other hand, a reagent having a pH of 7.0 was prepared and irradiated with light using the LED in the same manner as that described above in (1) to generate radicals. The reagent (chlorine dioxide radical concentration: 600 μmol/L) in which radicals were generated was diluted with a 10 mmol/L potassium phosphate buffer solution (pH: 7.0) as appropriate to prepare samples containing radicals at predetermined concentrations. […] Thereafter, the liquid mixture was scattered over brain heart agar, incubation was performed at 37° C. for 12 hours, and then the number of colonies was counted.
As control 1, a reagent having a pH of 7.0 that was not irradiated with light was added to the suspension of cell spores and was left to stand, and incubation was performed as described above, and then the number of colonies was counted. […]
Data set [3] relates to respiratory chain. As to the kind of experiment: Electron transfer activity of the respiratory chain in yeast cells. The data set is classed as cell-based. To be noted: in proportion to the reduction in survival rate.
Text: as §1

Data set [4] in a line: ClO2 radical concentration over time (absorption spectrum). The data set is classed as physicochemical. As to conditions: photoirradiation not performed.
Method: 1 mL of each of the reagents was placed in a disposable cell UV (product name: Two-face transparent semimicro #1941,Nikko Hansen & CO., LTD.), and was irradiated with light via a side surface of the cell using an LED in the same manner as in Example 1 (1) described above. The photoirradiation was performed similarly to Example 1 described above, unless otherwise specified. […] Then, an absorption spectrum was measured over time from the start of irradiation using the double optical path spectrophotometer (product name: UV-2400PC, SHIMADZU CORPORATION), and the molar concentration of chlorite ions (ClO2^−) was calculated from an absorbance at the minimum absorption of the wavelength of 260 nm, and the molar concentration of chlorine dioxide radicals (ClO2^⋅) was calculated from an absorbance at the maximum absorption of the wavelength of 359 nm.
In data set [5] the test system is HT-29 cells (human colon adenocarcinoma cells). To be noted: for cancer cells killed: 455 nm light 72 J/cm^2. On the procedure: HT-29 cells (human colon adenocarcinoma cells) were inoculated into each well of a cell incubation microplate (subjected to surface treatment) having 96 wells and grown in a CO2 incubator at 37° C. in the presence of 5% of CO2 until the number of cells reached about 2000 cells/well. 90 μL of McCoy's 5a Medium (the name of a product manufactured by FUJIFILM Wako Pure Chemical Corporation) was used as the cell culture medium. Next, after each treatment described below in (1) to (6) was performed, the medium was replaced with 90 μL of McCoy's 5a Medium and the cells were incubated in the CO2 incubator for 2 days under the above conditions. 10 μL of a WST-8 solution (solution in a product “WST-8 Cell Proliferation Kit”, Funakoshi Co., Ltd.) was added to measure the number of living cells, then incubation was performed in the CO2 incubator (37° C.) for 5 hours, and thereafter an absorbance of 450 nm was measured using a microplate reader. The percentage of the absorbance of each sample relative to an absorbance when treatment (1), which was a control experiment, was performed was calculated. The absorbance when treatment (1) was performed was almost the same as the absorbance of untreated cells.
Conditions of treatments (1) to (6) and percentages of absorbances of samples obtained through the treatments were as follows. The amount by which the percentage of an absorbance decreased from 100% is presumed to be substantially equal to a death rate (%) of cancer cells.
(1) The medium was replaced with 100 μL of PBS (pH: 7.0)** and left to stand at room temperature for 30 minutes. ------ Absorbance percentage: 100% (2) The medium was replaced with 100 μL of PBS (pH: 7.0) and irradiated with light (radiant energy: 72 J/cm^2) at room temperature for 30 minutes using an LED (product name: M455L3, Thorlabs Japan Inc., wavelength: 455 nm, irradiance: 40 mW/cm^2). ------ Absorbance percentage: 96% (3) The medium was replaced with 100 μL of PBS (pH: 7.0) containing 1.4 mM of NaClO2 and left to stand at room temperature for 30 minutes. ------ Absorbance percentage: 97% (4) The medium was replaced with 100 μL of PBS (pH: 7.0) containing 1.4 mM of NaClO2 and irradiated with light (radiant energy: 72 J/cm^2) at room temperature for 30 minutes using an LED (product name: M455L3, Thorlabs Japan Inc., wavelength: 455 nm, irradiance: 40 mW/cm^2). ------ Absorbance percentage: 11% (5) The medium was replaced with 100 μL of PBS (pH: 7.0) containing 2.8 mM of NaClO2 and left to stand at room temperature for 30 minutes. ------ Absorbance percentage: 97% (6) The medium was replaced with 100 μL of PBS (pH: 7.0) containing 2.8 mM of NaClO2 and irradiated with light (radiant energy: 72 J/cm^2) at room temperature for 30 minutes using an LED (product name: M455L3, Thorlabs Japan Inc., wavelength: 455 nm, irradiance: 40 mW/cm^2). ------ Absorbance percentage: 6% **: A phosphate-buffered saline whose pH was adjusted to 7.0 and osmotic pressure was adjusted to be the same as that of a standard phosphate-buffered saline having a pH of 7.5 was used. Specifically, PBS (pH: 7.0) had the following composition: NaCl: 140 mM, KCl: 0.43 mM, KH2PO4: 3.72 mM, Na2HPO4: 5.81 mM.

Setting [6] is: Experiment 1: 20 μmol/L chlorine dioxide radical sample mixed 1:1 with cell suspension, room temperature 30 minutes.
[7] abbreviates: control: sodium chlorite aqueous solution not irradiated with light, 25° C. 1 hour.

Where two headings read alike, the source gives them in different places. Where only a bound is given, the exact number is not on record here.

For the molecule `[O][Cl+][O-]` [chlorine dioxide radicals], the “concentration of cells after treatment” value with Yeast cells (setting [6]) is “about 2.5×10^7 cells/mL”. The “survival rate relative to untreated” value with Yeast cells (setting [6]) and in the data set with Candida albicans (as Experiment 1 (pre-generated chlorine dioxide radicals)) was “about one tenth” throughout. The “electron transfer activity of the respiratory chain” value with respiratory chain [1] and in the data set with respiratory chain [3] was “reduction” throughout. The “number of spores decreased to” value in data set [2] (chlorine dioxide radical concentration 300 μmol/L, room temperature 30 minutes) is reported as ≤ 10^−6. Also, the “time in which ClO2 radical concentration decreased by about half” value in data set [4] was approximately 2 h.
sodium chlorite: the cancer cells killed entry in data set [5] (1.4 mM) was “about 89%”; in data set [5] (2.8 mM), approximately 94%. For the same molecule, the “Absorbance percentage (450 nm, relative to treatment (1))” value in data set [5] (treatment (3): 1.4 mM, PBS pH 7.0, room temperature 30 minutes, no light) was determined as 97%; in data set [5] (treatment (4): 1.4 mM, PBS pH 7.0, 455 nm LED 40 mW/cm^2 30 minutes (72 J/cm^2)) it was 11%; in data set [5] (treatment (5): 2.8 mM, PBS pH 7.0, room temperature 30 minutes, no light) it was 97%; in data set [5] (treatment (6): 2.8 mM, PBS pH 7.0, 455 nm LED 40 mW/cm^2 30 minutes (72 J/cm^2)) it was 6%. Moreover, the survival rate result in the data set with Yeast cells (setting [7]) and in the data set on Candida albicans (setting [7]) was “did not decrease” each time. Moreover, the “survival rate relative to untreated” value in the data set with Candida albicans (as Experiment 2 (sodium chlorite with LED irradiation)) was “about one tenth”. Moreover, the “reduction in the number of spores” value in data set [2] (control 1: reagent pH 7.0 not irradiated with light) is recorded as “not confirmed”.
